The record followed here is US20230348415A1, “BISPECIFIC ANTAGONISTS OF RETINOL-BINDING PROTEIN 4 THAT STABILIZE TRANSTHYRETIN TETRAMERS, THEIR PREPARATION, AND USE IN THE TREATMENT OF COMMON AGE-RELATED COMORBIDITIES” (The Trustees of Columbia University in the City of New York, priority 2020, published 2023).

Where two headings read alike, the source gives them in different places.

The target in assay [1] is RBP4-TTR interaction (Homo sapiens (Human), UniProt P02753). The assay can be described thus: HTRF RBP4-TTR interaction assay. It counts as biochemical. The protocol:
HTRF Cryptate labeling kit from CisBio (Cisbio, cat #62EUSPEA, Bedfored, MA) was used to label TTR with Eu^3+ Cryptate. The assay was performed in a final assay volume of 16 μl in the buffer that contained 10 mM Tris-HCl pH 7.5, 1 mM DTT, 0.05% NP-40, 0.05% Prionex, 6% glycerol, and 400 mM KF. […] All of the reactions were performed under dim red light in the dark. The plates were read in the SpectraMax M5e Multimode Plate Reader (Molecular Devices, Sunnyvale, CA) after the overnight incubation at 4° C. […] The HTRF signal was expressed as the ratio of fluorescence intensity: Flu668/Flu620×10,000.

In assay [2] the target is TTR (Homo sapiens (Human), UniProt P02766). The assay can be described thus: biochemical. The note with it: FITC-coupled TTR FP probe; read-out: TTR FP IC50. It counts as binding. The method, then: Compound binding to TTR was assessed in the fluorescence polarization assay. […] Each well contained 200 nM TTR and 100 nM FITC-diclofenac in the FP buffer (10 mM Tris-HCl pH 7.5, 150 mM NaCl, 0.01% CHAPS, 0.01% Prionex) along with test compounds. Nonspecific binding was determined in the presence of 500 μM unlabeled diclofenac (Sigma-Aldrich). Reactions with test compounds were incubated overnight at 4° C. and FP was measured on SpectramaxM5e plate reader (Molecular Devices).

Assay [3] deals with RBP4 (Homo sapiens (Human), UniProt P02753). The assay can be described thus: RBP4 SPA binding assay (displacement of 3H-retinol).
Setting [4] is: 1 μM retinol, read-out: RBP4-TTR HTRF IC50.
Where [5] appears, read: fixed 10 nM 3H-retinol, read-out: RBP4 SPA IC50.

The IC50 is the concentration that gives 50% inhibition. `Cc1cc(C(=O)O)nc(N2CCC(Oc3ccccc3C(F)(F)F)CC2)n1` [Compound 21, 6-Methyl-2-(4-(2-(trifluoromethyl)phenoxy)piperidin-1-yl)pyrimidine-4-carboxylic Acid]: the IC50 amounted to 18700 nM in assay [1] (setting [4]), 4000 nM in assay [2] and 2440 nM in assay [3] (setting [5]).
For `Cc1cc(C(=O)O)nc(N2CC[C@H](COc3ccccc3C(F)(F)F)C2)n1` [Compound (S)-56, (S)-6-Methyl-2-(3-((2-(trifluoromethyl)phenoxy)methyl)pyrrolidin-1-yl)pyrimidine-4-carboxylic Acid], the figures for the 50% inhibitory concentration (IC50) in assay [1] (setting [4]), in assay [2] and in assay [3] (setting [5]) were 750 nM, 3900 nM and 150 nM, respectively.
On to `Cc1cc(C(=O)O)nc(N2CCC(CNc3ccccc3C(F)(F)F)C2)n1` (racemic) [(±)-76, (±)-6-Methyl-2-(3-(((2-(trifluoromethyl)phenyl)amino)methyl)pyrrolidin-1-yl)pyrimidine-4-carboxylic Acid], for which the IC50 in assay [1] (setting [4]) was 7500 nM; in assay [2], 3500 nM; in assay [3] (setting [5]), 900 nM.
For `Cc1cc(C(=O)O)nc(N2CCC(CSc3ccccc3C(F)(F)F)C2)n1` (racemic) [Compound (±)-71, (±)-6-Methyl-2-(3-(((2-(trifluoromethyl)phenyl)thio)methyl)pyrrolidin-1-yl)pyrimidine-4-carboxylic Acid], in that order: 1300 nM, 10500 nM and 230 nM.
Consider `Cc1cc(-c2nn[nH]n2)nc(N2CCC(COc3ccccc3C(F)(F)F)C2)n1` (racemic) [(±)-103, (±)-4-Methyl-6-(2H-tetrazol-5-yl)-2-(3-((2-(trifluoromethyl)phenoxy)methyl)pyrrolidin-1-yl)pyrimidine], for which the 50% inhibitory concentration (IC50) came out at 1600 nM in assay [1], 1260 nM in assay [2] and 86 nM in assay [3].
`Cc1cc(C(=O)NS(C)(=O)=O)nc(N2CCC(COc3ccccc3C(F)(F)F)C2)n1` (racemic) [(±)-99, (±)-6-Methyl-N-(methylsulfonyl)-2-(3-((2-(trifluoromethyl)phenoxy)methyl)pyrrolidin-1-yl)pyrimidine-4-carboxamide]: the IC50 in assay [1] (setting [4]) was 700 nM; in assay [2], 4200 nM; in assay [3] (setting [5]) it was 81 nM.
For `Cc1cc(C(=O)O)nc(N2CC(COc3ccccc3C(F)(F)F)C2)n1` [Compound 38, 6-Methyl-2-(3-((2-(trifluoromethyl)phenoxy)methyl)azetidin-1-yl)pyrimidine-4-carboxylic Acid], in that order: 6500 nM, 26000 nM and 800 nM.
The matching figures for `Cc1cc(C(=O)O)nc(N2CCC(COc3cc(F)ccc3C(F)(F)F)C2)n1` (racemic) [Compound (±)-88, (±)-2-(3-((5-Fluoro-2-(trifluoromethyl)phenoxy)methyl)pyrrolidin-1-yl)-6-methylpyrimidine-4-carboxylic Acid]: 300 nM, 13000 nM and 130 nM.
In the case of `O=C(O)c1cccnc1N1CCC(COc2ccccc2C(F)(F)F)C1` (racemic) [Compound (±)-97, (±)-2-(3-((2-(Trifluoromethyl)phenoxy)methyl)pyrrolidin-1-yl)nicotinic Acid], the figures for the IC50 in assay [1] (setting [4]), in assay [2] and in assay [3] (setting [5]) were 1300 nM, 4900 nM and 680 nM, respectively.
On to `Cc1cc(C(=O)O)nc(N2CCC(COc3ccccc3C3CCCC3)C2)n1` (racemic) [Compound (±)-84, (±)-2-(3-((2-Cyclopentylphenoxy)methyl)pyrrolidin-1-yl)-6-methylpyrimidine-4-carboxylic Acid], for which the IC50 was 540 nM in assay [1] (setting [4]), more than 30000 nM in assay [2] and 160 nM in assay [3] (setting [5]).
The matching figures for `Cc1cc(C(=O)O)nc(N2CCC(COc3ccccc3C(F)(F)F)C2)c1` (racemic) [(±)-95, (±)-4-Methyl-6-(3-((2-(trifluoromethyl)phenoxy)methyl)pyrrolidin-1-yl)picolinic Acid]: 540 nM, 7400 nM and 130 nM.
The matching figures for `Cc1cc(C(=O)O)nc(N2CCC(COc3ccc(F)cc3C(F)(F)F)C2)n1` (racemic) [Compound (±)-87, (W)-2-(3-((4-Fluoro-2-(trifluoromethyl)phenoxy)methyl)pyrrolidin-1-yl)-6-methylpyrimidine-4-carboxylic Acid]: 870 nM, 3900 nM and 240 nM.
The matching figures for `CNC(=O)c1cc(C)nc(N2CCC(COc3ccccc3C(F)(F)F)C2)n1` (racemic) [(±)-101, (±)-N,6-dimethyl-2-(3-((2-(trifluoromethyl)phenoxy)methyl)pyrrolidin-1-yl)pyrimidine-4-carboxamide]: more than 30000 nM, more than 30000 nM and 89 nM.
As to `Cc1cc(C(=O)NC2CC2)nc(N2CCC(COc3ccccc3C(F)(F)F)C2)n1` (racemic) [Compound (±)-102, (±)-N-Cyclopropyl-6-methyl-2-(3-((2-(trifluoromethyl)phenoxy)methyl)pyrrolidin-1-yl)pyrimidine-4-carboxamide], the IC50 in assay [1] (setting [4]) was determined as 19000 nM; in assay [2], 4100 nM; in assay [3] (setting [5]), 62 nM.
Take `Cc1cc(C(=O)O)nc(N2CCC(COc3cnccc3C(F)(F)F)C2)n1` (racemic) [Compound (±)-92, (±)-6-Methyl-2-(3-(((4-(trifluoromethyl)pyridin-3-yl)oxy)methyl)pyrrolidin-1-yl)pyrimidine-4-carboxylic Acid]: the IC50 in assay [1] (setting [4]) is 3700 nM; in assay [2], more than 30000 nM; in assay [3] (setting [5]), 520 nM.
For `Cc1cc(C(=O)O)nc(N2CC[C@@H](COc3ccccc3C(F)(F)F)C2)n1` [Compound (R)-50, (R)-6-Methyl-2-(3-((2-(trifluoromethyl)phenoxy)methyl)pyrrolidin-1-yl)pyrimidine-4-carboxylic Acid], the values for the IC50 in assay [1] (setting [4]), in assay [2] and in assay [3] (read-out: RBP4 SPA IC50) were 240 nM, 3200 nM and 65 nM, respectively.
In the case of `Cc1cc(C(=O)O)nc(N2CCC(COc3c(F)cccc3C(F)(F)F)C2)n1` (racemic) [Compound (±)-89, (±)-2-(3-((2-Fluoro-6-(trifluoromethyl)phenoxy)methyl)pyrrolidin-1-yl)-6-methylpyrimidine-4-carboxylic Acid], the values for the IC50 in assay [1] (setting [4]), in assay [2] and in assay [3] (setting [5]) were 1000 nM, 1900 nM and 300 nM, respectively.
The matching figures for `Cc1cc(C(N)=O)nc(N2CCC(COc3ccccc3C(F)(F)F)C2)n1` (racemic) [Compound (±)-100, (±)-6-Methyl-2-(3-((2-(trifluoromethyl)phenoxy)methyl)pyrrolidin-1-yl)pyrimidine-4-carboxamide]: 2300 nM, more than 30000 nM and 62 nM.
With `Cc1cc(C(=O)O)nc(N2CCC(COc3ccccc3C(C)(C)C)C2)n1` (racemic) [Compound (±)-83, (±)-2-(3-((2-(Tert-butyl)phenoxy)methyl)pyrrolidin-1-yl)-6-methylpyrimidine-4-carboxylic Acid], the IC50 in assay [1] (setting [4]) was 450 nM; in assay [2], more than 30000 nM; in assay [3] (setting [5]) it was 130 nM.
Turning to `Cc1cc(C(=O)O)nc(N2CCCC(COc3ccccc3C(F)(F)F)C2)n1` (racemic) [(±)-62, (±)-6-Methyl-2-(3-((2-(trifluoromethyl)phenoxy)methyl)piperidin-1-yl)pyrimidine-4-carboxylic Acid], the IC50 in assay [1] worked out at 15000 nM; in assay [2] it was 1100 nM; in assay [3], 480 nM.
